Measurements from patent publication US11453703B2, “Heterotandem bicyclic peptide complexes” (BicycleTX Limited, priority 2018, dated 2022).

Molecular target: CD137 (Homo sapiens, UniProt Q07011)
Test: CD137 reporter assay, co-culture with EphA2 tumour cells
Format: cell-based
Set-up: host or cells: Jurkat reporter cells
Protocol: Culture medium referred to as R1 media is prepared by adding 1% FBS to RPMI-1640 (component of Promega kit CS196005). Serial dilutions of test articles in R1 are prepared in a sterile 96 well-plate. Use 25 μl per well of test articles or R1 (as a background control) to designated wells in white cell culture plate. Tumour cells* are harvested and resuspended at a concentration of 400,000 cells/mL in R1 media. Twenty five (25) μL/well tumour cells are used in white cell culture plate. Jurkat cells (Promega kit CS196005, 0.5 mL) are thawed in the water bath and then added to 5 ml pre-warmed R1 medium. Twenty five (25) μL/well Jurkat cells are used in white cell culture plate. Incubate the cells and test articles for 6h at 37° C., 5% CO2. At the end of 6 h, add 75 μl/well Bio-Glo™ (Promega) and incubate for 10 min before reading luminescence in a plate reader (Clariostar, BMG). The fold change relative to cells (Jurkat cells+Cell line used in co-culture) is calculated and plotted in GraphPad Prism as log(agonist) vs response to determine EC50 (nM) and Fold Induction over background (Max)

[1] = tumour target EphA2, co-culture with SC-OV-3, 6 h
[2] = tumour target EphA2, co-culture with PC3, 6 h

CD137, sequence (Q07011 24-255): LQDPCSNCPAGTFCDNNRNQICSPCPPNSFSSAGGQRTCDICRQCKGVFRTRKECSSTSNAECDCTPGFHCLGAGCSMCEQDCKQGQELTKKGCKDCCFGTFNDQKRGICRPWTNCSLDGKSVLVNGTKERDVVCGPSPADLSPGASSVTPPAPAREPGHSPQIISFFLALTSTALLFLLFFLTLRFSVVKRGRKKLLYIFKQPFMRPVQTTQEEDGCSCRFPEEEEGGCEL

SMILES	Fold Induction over Background [1] [fold]	Fold Induction over Background [2] [fold]	also measured
CCCC[C@@H]1NC(=O)[C@H](Cc2ccc(O)cc2)NC(=O)[C@@H]2CCCN2C(=O)[C@H](CC(=O)O)NC(=O)[C@H](C)NC(=O)[C@H](Cc2ccccc2)NC(=O)[C@@H]2CSCCC(=O)N3CN(CN(C3)C(=O)CCSC[C@@H](C(=O)N[C@@H](CNC(=O)CCOCCOCCOCCOCCOCCOCCOCCOCCOCCOCCOCCOCCn3cc(CCC(=O)NCCC(=O)N(C)CC(=O)N(C)CC(=O)N(C)CC(=O)N(C)CC(=O)N(C)CC(=O)N(C)CC(=O)N(C)CC(=O)N(C)CC(=O)N(C)CC(=O)N(C)CC(=O)N[C@@H](C)C(=O)N[C@@H](CCCCNC(=N)N)C(=O)N[C@@H](CC(=O)O)C(=O)N[C@H]4CSCCC(=O)N5CN6CN(C5)C(=O)CCSC[C@H](NC(=O)[C@H](CC(C)C)NC(=O)[C@@H]5CCCN5C(=O)[C@H](CC(N)=O)NC(=O)[C@H](C(C)C)NC(=O)[C@H](CC(C)C)NC(=O)[C@@H]5C[C@@H](O)CN5C4=O)C(=O)N[C@@H](CC(C)C)C(=O)N[C@@H](Cc4c[nH]cn4)C(=O)N4CCC[C@H]4C(=O)N[C@H](CC(=O)O)C(=O)N[C@@H](Cc4c[nH]c5ccccc45)C(=O)N[C@@H](CCCCNC(=N)N)C(=O)N[C@H](C(N)=O)CSCCC6=O)nn3)C(N)=O)NC1=O)C(=O)CCSC[C@H](NC(=O)[C@H](C)NC(C)=O)C(=O)N[C@@H]([C@@H](C)CC)C(=O)N[C@@H](CCC(=O)O)C(=O)N[C@@H](CCC(=O)O)C(=O)NCC(=O)N[C@@H](CCC(N)=O)C(=O)N[C@@H](Cc1ccc(O)cc1)C(=O)N2 [BCY7985]	15		induction of CD137 cell activity (Promega CD137 luciferase reporter assay, in the presence of EphA2-expressing HT1080 cells (FIG. 3)): strong induction of CD137 cell activity; CD137 induction (in the absence of HT1080 cells (FIG. 3)): no CD137 induction
CCCC[C@@H]1NC(=O)[C@H](Cc2ccc(O)cc2)NC(=O)[C@@H]2CCCN2C(=O)[C@H](CC(=O)O)NC(=O)[C@H](C)NC(=O)[C@H](Cc2ccccc2)NC(=O)[C@@H]2CSCCC(=O)N3CN(CN(C3)C(=O)CCSC[C@@H](C(=O)N[C@@H](CNC(=O)CCOCCOCCOCCOCCOCCOCCOCCOCCOCCOCCOCCOCCn3cc(CCC(=O)NCCC(=O)N(C)CC(=O)N(C)CC(=O)N(C)CC(=O)N(C)CC(=O)N(C)CC(=O)N(C)CC(=O)N(C)CC(=O)N(C)CC(=O)N(C)CC(=O)N(C)CC(=O)N[C@H](C(=O)NCC(=O)N4CCC[C@H]4C(=O)N[C@H]4CSCCC(=O)N5CN6CN(C5)C(=O)CCSC[C@H](NC(=O)[C@@H]5CCCN5C(=O)[C@H]([C@@H](C)O)NC(=O)[C@@H]5CCCN5C(=O)[C@H](CC(=O)O)NC(=O)[C@H](Cc5c[nH]c7ccccc57)NC(=O)[C@H](CC(C)C)NC4=O)C(=O)N[C@@H](C)C(=O)N[C@@H](CC(N)=O)C(=O)N[C@@H](CC(C)C)C(=O)N[C@@H](Cc4c[nH]cn4)C(=O)N[C@@H](CC(C)C)C(=O)N[C@@H](CCCCNC(=N)N)C(=O)N[C@H](C(N)=O)CSCCC6=O)C(C)C)nn3)C(N)=O)NC1=O)C(=O)CCSC[C@H](NC(=O)[C@H](C)NC(C)=O)C(=O)N[C@@H]([C@@H](C)CC)C(=O)N[C@@H](CCC(=O)O)C(=O)N[C@@H](CCC(=O)O)C(=O)NCC(=O)N[C@@H](CCC(N)=O)C(=O)N[C@@H](Cc1ccc(O)cc1)C(=O)N2 [BCY8943]			fold induction at 0.1 µM (tumour target EphA2, co-culture with PC3, at 100 nM, read-out: Fold Induction over Background at 100 nM): < 2
CCCC[C@@H]1NC(=O)[C@H](Cc2ccc(O)cc2)NC(=O)[C@@H]2CCCN2C(=O)[C@H](CC(=O)O)NC(=O)[C@H](C)NC(=O)[C@H](Cc2ccccc2)NC(=O)[C@@H]2CSCCC(=O)N3CN(CN(C3)C(=O)CCSC[C@@H](C(=O)N[C@@H](CNC(=O)CCOCCOCCOCCOCCOCCOCCOCCOCCOCCOCCOCCOCCn3cc(CCC(=O)NCCC(=O)N(C)CC(=O)N(C)CC(=O)N(C)CC(=O)N(C)CC(=O)N(C)CC(=O)N(C)CC(=O)N(C)CC(=O)N(C)CC(=O)N(C)CC(=O)N(C)CC(=O)N[C@@H](C)C(=O)N[C@@H](CCCCNC(=N)N)C(=O)N[C@@H](CC(=O)O)C(=O)N[C@H]4CSCCC(=O)N5CN6CN(C5)C(=O)CCSC[C@H](NC(=O)[C@H](CC(C)C)NC(=O)[C@@H]5CCCN5C(=O)[C@H](CC(N)=O)NC(=O)[C@H](C(C)C)NC(=O)[C@H](CC(C)C)NC(=O)[C@@H]5C[C@@H](O)CN5C4=O)C(=O)N[C@@H](CC(C)C)C(=O)N[C@@H](Cc4c[nH]cn4)C(=O)N4CCC[C@H]4C(=O)N[C@H](CC(=O)O)C(=O)N[C@@H](Cc4c[nH]c5ccccc45)C(=O)N[C@@H](CCCCNC(=N)N)C(=O)N[C@H](C(N)=O)CSCCC6=O)nn3)C(N)=O)NC1=O)C(=O)CCSC[C@H](NC(C)=O)C(=O)N[C@@H](CC(C)(C)C)C(=O)N1CCC[C@H]1C(=O)N[C@@H](CCC(=O)O)C(=O)N[C@H](C)C(=O)N1CCC[C@H]1C(=O)N[C@@H](Cc1ccc(O)cc1)C(=O)N2 [BCY9173]	21		
CCCC[C@@H]1NC(=O)[C@H](Cc2ccc(O)cc2)NC(=O)[C@@H]2CCCN2C(=O)[C@H](CC(=O)O)NC(=O)[C@H](C)NC(=O)[C@H](Cc2ccccc2)NC(=O)[C@@H]2CSCCC(=O)N3CN(CN(C3)C(=O)CCSC[C@@H](C(=O)N[C@@H](CNC(=O)CCOCCOCCOCCOCCOCCOCCOCCOCCOCCOCCOCCOCCOCCOCCOCCOCCOCCOCCOCCOCCOCCOCCOCCOCCOCCC(=O)NCCC(=O)N(C)CC(=O)N(C)CC(=O)N(C)CC(=O)N(C)CC(=O)N(C)CC(=O)N(C)CC(=O)N(C)CC(=O)N(C)CC(=O)N(C)CC(=O)N(C)CC(=O)N[C@@H](C)C(=O)N[C@@H](CCCCNC(=N)N)C(=O)N[C@@H](CC(=O)O)C(=O)N[C@H]3CSCCC(=O)N4CN5CN(C4)C(=O)CCSC[C@H](NC(=O)[C@H](CC(C)C)NC(=O)[C@@H]4CCCN4C(=O)[C@H](CC(N)=O)NC(=O)[C@H](C(C)C)NC(=O)[C@H](CC(C)C)NC(=O)[C@@H]4C[C@@H](O)CN4C3=O)C(=O)N[C@@H](CC(C)C)C(=O)N[C@@H](Cc3c[nH]cn3)C(=O)N3CCC[C@H]3C(=O)N[C@H](CC(=O)O)C(=O)N[C@@H](Cc3c[nH]c4ccccc34)C(=O)N[C@@H](CCCCNC(=N)N)C(=O)N[C@H](C(N)=O)CSCCC5=O)C(N)=O)NC1=O)C(=O)CCSC[C@H](NC(=O)[C@H](C)NC(C)=O)C(=O)N[C@@H]([C@@H](C)CC)C(=O)N[C@@H](CCC(=O)O)C(=O)N[C@@H](CCC(=O)O)C(=O)NCC(=O)N[C@@H](CCC(N)=O)C(=O)N[C@@H](Cc1ccc(O)cc1)C(=O)N2 [BCY9758]	7		EC50 [1]: 1.2 nM
CCCC[C@@H]1NC(=O)[C@H](Cc2ccc(O)cc2)NC(=O)[C@@H]2CCCN2C(=O)[C@H](CC(=O)O)NC(=O)[C@H](C)NC(=O)[C@H](Cc2ccccc2)NC(=O)[C@@H]2CSCCC(=O)N3CN(CN(C3)C(=O)CCSC[C@@H](C(=O)N[C@@H](C)C(N)=O)NC1=O)C(=O)CCSC[C@H](NC(C)=O)C(=O)N[C@@H](CC(C)(C)C)C(=O)N1CCC[C@H]1C(=O)N[C@@H](CCCCNC(=O)CCOCCOCCOCCOCCOCCOCCOCCOCCOCCOCCOCCOCCn1cc(CCC(=O)NCCC(=O)N(C)CC(=O)N(C)CC(=O)N(C)CC(=O)N(C)CC(=O)N(C)CC(=O)N(C)CC(=O)N(C)CC(=O)N(C)CC(=O)N(C)CC(=O)N(C)CC(=O)N[C@@H](C)C(=O)N[C@@H](CCCCNC(=N)N)C(=O)N[C@@H](CC(=O)O)C(=O)N[C@H]3CSCCC(=O)N4CN5CN(C4)C(=O)CCSC[C@H](NC(=O)[C@H](CC(C)C)NC(=O)[C@@H]4CCCN4C(=O)[C@H](CC(N)=O)NC(=O)[C@H](C(C)C)NC(=O)[C@H](CC(C)C)NC(=O)[C@@H]4C[C@@H](O)CN4C3=O)C(=O)N[C@@H](CC(C)C)C(=O)N[C@@H](Cc3c[nH]cn3)C(=O)N3CCC[C@H]3C(=O)N[C@H](CC(=O)O)C(=O)N[C@@H](Cc3c[nH]c4ccccc34)C(=O)N[C@@H](CCCCNC(=N)N)C(=O)N[C@H](C(N)=O)CSCCC5=O)nn1)C(=O)N[C@H](C)C(=O)N1CCC[C@H]1C(=O)N[C@@H](Cc1ccc(O)cc1)C(=O)N2 [BCY10568]		32	
CCCC[C@@H]1NC(=O)[C@H](Cc2ccc(O)cc2)NC(=O)[C@@H]2CCCN2C(=O)[C@H](CC(=O)O)NC(=O)[C@H](C)NC(=O)[C@H](Cc2ccccc2)NC(=O)[C@@H]2CSCCC(=O)N3CN(CN(C3)C(=O)CCSC[C@@H](C(=O)N[C@@H](C)C(N)=O)NC1=O)C(=O)CCSC[C@H](NC(C)=O)C(=O)N[C@@H](CC(C)(C)C)C(=O)N1CCC[C@H]1C(=O)N[C@@H](CCC(=O)O)C(=O)N[C@H](CCCCNC(=O)CCOCCOCCOCCOCCOCCOCCOCCOCCOCCOCCOCCOCCn1cc(CCC(=O)NCCC(=O)N(C)CC(=O)N(C)CC(=O)N(C)CC(=O)N(C)CC(=O)N(C)CC(=O)N(C)CC(=O)N(C)CC(=O)N(C)CC(=O)N(C)CC(=O)N(C)CC(=O)N[C@@H](C)C(=O)N[C@@H](CCCCNC(=N)N)C(=O)N[C@@H](CC(=O)O)C(=O)N[C@H]3CSCCC(=O)N4CN5CN(C4)C(=O)CCSC[C@H](NC(=O)[C@H](CC(C)C)NC(=O)[C@@H]4CCCN4C(=O)[C@H](CC(N)=O)NC(=O)[C@H](C(C)C)NC(=O)[C@H](CC(C)C)NC(=O)[C@@H]4C[C@@H](O)CN4C3=O)C(=O)N[C@@H](CC(C)C)C(=O)N[C@@H](Cc3c[nH]cn3)C(=O)N3CCC[C@H]3C(=O)N[C@H](CC(=O)O)C(=O)N[C@@H](Cc3c[nH]c4ccccc34)C(=O)N[C@@H](CCCCNC(=N)N)C(=O)N[C@H](C(N)=O)CSCCC5=O)nn1)C(=O)N1CCC[C@H]1C(=O)N[C@@H](Cc1ccc(O)cc1)C(=O)N2 [BCY10570]		38	EC50 [2]: 0.41 nM
